Experimental data reported in PMC7155171, “Probing the Open Global Health Chemical Diversity Library for Multistage-Active Starting Points for Next-Generation Antimalarials” (ACS Infectious Diseases, 2020).
Where two headings read alike, the source gives them in different places.

System: P. falciparum Dd2 (PfLuc) line expressing firefly luciferase, asexual blood stage
Experiment: microbe, parasite or virus in culture
Type: cell-based, Plasmodium falciparum
Conditions: Plasmodium falciparum
[1] = DD2, 8-pt dose response, 96hr, read-out: P. falciparum Luciferase ABS 8-pt Reconfirmation Dose Response (96hr): IC50
[2] = DD2, 8-pt dose response, 96hr, read-out: P. falciparum Luciferase ABS 8-pt Reconfirmation Dose Response (96hr): Maximum inhibition (%)
[3] = DD2, read-out: P. falciparum Luciferase ABS 11-pt Reconfirmation Dose Response (48hr): IC50, 11-pt dose response, 48hr
[4] = DD2, 11-pt dose response, 48hr, read-out: P. falciparum Luciferase ABS 11-pt Reconfirmation Dose Response (48hr): Maximum inhibition (%)
[5] = DD2, 11-pt dose response, 96hr, read-out: P. falciparum Luciferase ABS 11-pt Reconfirmation Dose Response (96hr): IC50
[6] = DD2, 11-pt dose response, 96hr, read-out: P. falciparum Luciferase ABS 11-pt Reconfirmation Dose Response (96hr): Maximum inhibition (%)
[7] = DD2, read-out: CDD P. falciparum Luciferase ABS 11-pt Reconfirmation Dose Response (48hr): IC50 (μM), 11-pt dose response, 48hr
[8] = DD2, 8-pt dose response, 96hr, read-out: CDD P. falciparum Luciferase ABS 8-pt Reconfirmation Dose Response (96hr): IC50
[9] = DD2, 8-pt dose response, 96hr, read-out: CDD P. falciparum Luciferase ABS 8-pt Reconfirmation Dose Response (96hr): Maximum inhibition (%)
[10] = DD2, 11-pt dose response, 48hr, read-out: CDD P. falciparum Luciferase ABS 11-pt Reconfirmation Dose Response (48hr): Maximum inhibition (%)
[11] = DD2, 11-pt dose response, 96hr, read-out: CDD P. falciparum Luciferase ABS 11-pt Reconfirmation Dose Response (96hr): IC50
[12] = DD2, 11-pt dose response, 96hr, read-out: CDD P. falciparum Luciferase ABS 11-pt Reconfirmation Dose Response (96hr): Maximum inhibition (%)

Compound	IC50 [1] [µM]	Emax [2] [%]	also measured
Cn1ccnc1C(O)(CCNCc1ccc(Cl)o1)C(F)(F)F (centres unmarked) [DDD01062848]	2.81	78.7	–
Clc1cc(CN2CCCN3CCCC3C2)c2ncccc2c1 (centres unmarked) [DDD01063271]	1.74	93	–
Cn1ccnc1CNC1CCCOc2c1ccc1ccccc21 (centres unmarked) [DDD01063614]	1.52	80.3	–
CC(O)CN1CCC(CN(C)Cc2cc(F)cc3cccnc23)CC1 (centres unmarked) [DDD01063726]	1.33	92.8	–
CC(C)(NCc1cccc(O)c1)c1ccc2c(c1)OCO2 [DDD01063924]	1.21	84.9	–
CC(NCCc1nccn1Cc1ccccc1)c1cccs1 (centres unmarked) [DDD01065609]	1.39	85.7	–
Cc1ccc(C(C)NCCc2nccn2Cc2ccccc2)o1 (centres unmarked) [DDD01065613]	1.62	82.8	–
CCC(CNC(=O)CNC(C)=O)Oc1cccc(F)c1 (centres unmarked) [DDD01066100]	2.09	83.9	IC50 [3]: 6.31 µM; Emax [4]: 55.6%; IC50 [5]: 2.15 µM; Emax [6]: 83.4%
CN(C)CCN(Cc1cccnc1)C(=O)c1ccn(-c2ccccc2)n1 [DDD01066387]	1.43	81.1	–
CCN(C)CC1CCN(S(=O)(=O)c2cc(C)c(F)cc2Cl)C1 (centres unmarked) [DDD01067996]	1.72	86.1	–
CCN1CCC(CNCc2cc(C)ccc2OC)C1 (centres unmarked) [DDD01069824]	1.26	90.1	–
CNS(=O)(=O)c1cccc(C(C)NCc2ccccc2OC)c1 (centres unmarked) [DDD01069885]	1.18	80.1	–
O=C(CCN1CCCC1c1cccc2c1OCCO2)N1CCCCC1 (centres unmarked) [DDD01070009]	–	–	IC50 [7]: 6.96 µM; IC50 [8]: 1.06 µM; Emax [9]: 80.3%; Emax [10]: 51%; IC50 [11]: 2.64 µM; Emax [12]: 84.9%
CCN(CC1CN(Cc2nc(C3CC3)no2)CCO1)c1cccnn1 (centres unmarked) [DDD01070232]	1.86	79.6	–
Fc1ccc2c(C3=CCN(Cc4nnc(C5CCC5)o4)CC3)c[nH]c2c1 [DDD01071325]	1.7	88.7	–
Cc1cn2c(n1)C(CNCC1=Cc3cc(Cl)ccc3OC1)CCC2 (centres unmarked) [DDD01073229]	1.71	–	–
COc1ccccc1C(C)(C)NCc1ccc(C)o1 [DDD01074244]	1.77	82.7	–
CC(=O)N(c1ccc(C)cc1)c1nc(CN2CCCC(C)C2)cs1 (centres unmarked) [DDD01075341]	1.83	86.4	–
CCC(NCc1ccccc1Cl)c1ccccc1OCC(=O)NC (centres unmarked) [DDD01075649]	1.9	81.7	IC50 [3]: > 12.5 µM; Emax [4]: 57.7%; IC50 [5]: 3.66 µM; Emax [6]: 86.1%
CCC(NCc1ccccc1C)c1ccccc1OCC(=O)NC (centres unmarked) [DDD01075651]	–	–	IC50 [7]: > 12.5 µM; IC50 [8]: 0.85 µM; Emax [9]: 76.9%; Emax [10]: 60.7%; IC50 [11]: 2.43 µM; Emax [12]: 84.1%
CCC(NCc1cccc(Cl)c1)c1ccccc1OCC(=O)NC (centres unmarked) [DDD01075652]	1.31	76.5	–
CC(C)Oc1ccc(C(O)CNCc2ccccc2C(F)(F)F)cc1 (centres unmarked) [DDD01076007]	1.5	80.1	–
Cc1cnn(CCCNCc2csc(COc3ccccc3)n2)c1 [DDD01077297]	1.25	85.8	IC50 [3]: 7.24 µM; Emax [4]: 63.7%; IC50 [5]: 1.2 µM; Emax [6]: 86.7%
CO[C@@H]1CCN(Cc2ccoc2)C[C@@H]1Cc1ccccc1 [DDD01081909]	–	–	IC50 [8]: 1.08 µM; Emax [9]: 85.9%
FC1(F)CCN(Cc2cccnc2)CC12CCN(c1ccccc1)C2 (centres unmarked) [DDD01082961]	1.65	91.5	–
Fc1cnc(N2CCCC3(CCN(Cc4ccoc4)C3)C2)nc1 (centres unmarked) [DDD01084184]	1.79	83.1	–
CC(C)[C@H](CO)Nc1nccc(-c2c[nH]nc2-c2ccncc2)n1 [DDD01235869]	1.69	82	–
CC(Nc1nc(-c2ccccc2)nc2c1CCNCC2)c1cccnc1 (centres unmarked) [DDD01244613]	1.58	92.9	–
Cc1ncc(CN(C)C2CCCN(CCc3ccccc3)C2)n1C (centres unmarked) [DDD01244648]	–	–	IC50 [7]: 6.24 µM; IC50 [8]: 0.88 µM; Emax [9]: 88.5%; Emax [10]: 55.1%; IC50 [11]: 1.78 µM; Emax [12]: 88.7%
CC(C)=CCN1CCC2(CC1)c1ccccc1[C@@H](N1CCSCC1)[C@@H]2O [DDD01245335]	1.31	82.4	–
